Results taken from US9139551B2, “Preparation of a new class of water-soluble ammonium 2,3-dihydroxy-5-((2R,3R)-3,5,7-trihydroxy-4-oxochroman-2-yl) phenolates and their biological activity of alcohol elimination” (priority 2014, dated 2015).
Converted amounts (≈) assume the structure as drawn. “And” between values parts separate entries of the source, which are not always exact repeats. Equal entries are not always repeated. Marks after values point to notes of the source that are not given here.

Assays:
mice [1] = experiment: Acute toxicity, intraperitoneal administration (mortality, LD50, body weight, dietary); type: in vivo; details: for Dead number: 20 mice; for Dead number / mortality: 7 days
Experimental: Acute Toxicity • Compounds PDHM/TDHM.
140 mice were divided into 7 groups (n=20), each group include 10 males and 10 females, they were treated with different concentrations of dosages and observed for 7 days. Specific experimental groups and experimental results were noted below. Note: Section 1-6 group compound are PDHM groups, and group 7 is a negative control group.
140 mice were divided into 7 groups (n=20), each group include 10 males and 10 females, they were treated with different concentrations of dosage and observed for 7 days. Note: Section 1-6 group compound are PDHM groups, and group 7 is a negative control group.

Balb/C mice [2] = experiment: Plasma EtOH concentration assay; type: in vivo; details: intragastric 2 mg/kg
Experimental: Plasma EtOH Concentration Assay. • Blood samples from the tail vein of mice at different time points (0, 15, 30, 45, 60, 90, 120, 240, 480 and 720 minutes) after EtOH (30% ethanol, 0.2 ml/kg bw) or TDHM (2 mg/kg bw), PDHM (2 mg/kg bw) or DHM (2 mg/kg bw) gavage were collected for plasma EtOH concentrations (plasma [EtOH]) assays. (“BW” or “bw”: body weight) • Briefly, the Balb/C mice were put into a restraint tube and the tail was warmed at 37° C. The tail vein at the tip of the tail was punched with a sharp blade. Approximately 0.2 ml venous blood was dropped to a capillary blood collection tube containing lithium heparin (Ram Scientific). Blood samples were centrifuged at 2500 rpm for 20 min. The supernatant was collected and stored at −80° C. until assay. The EtOH content of each blood sample was measured in duplicate along with EtOH standards using the alcohol oxidase reaction procedures (EnzyChrom™ Ethanol Acid Assay Kit, ECET-100) (Liang et al., 2007). The sample preparations were the same as described above.

Balb/C mice [3] = experiment: Anti-alcoholism test (agent 30 min after alcohol); type: in vivo
Excerpt: Anti-Alcoholism Tests • Groups design and treatment before experiment are as the same as that in Deintoxication test. […]

Balb/C mice [4] = experiment: Climbing net test; type: in vivo; details: 2 mg/kg gavage 30 min before alcohol; vertical metal net
Experimental: Climbing Net Test • Groups design and treatment before experiment are as the same as that in deintoxication test. […] 30 minutes later all mice administrated alcohol (liquid Erguotou, ethonol concentration was diluted to 30%) 0.2 mL/kg BW and placed on a vertical metal net and measured the time when mice climbed on net.

physchem = details: water
Balb/C mice [5] = experiment: Deintoxication test (agent 30 min before alcohol)
[6] = Acute toxicity, intragastric administration (maximum tolerated dose); details: both, mouse, in vivo, po, 1250 mg/kg
mice [7] = experiment: as above; details: for average body weight of mice / dietary change-by-day of mice: PDHM MTD 3750 mg/kg i.g.
[8] = 2 mg/kg gavage 30 min after 30% ethanol
[9] = 2 mg/kg gavage 30 min after 30% ethanol, 20 mice
[10] = 2 mg/kg gavage 30 min before 30% ethanol
[11] = agents intragastric 30 minutes before drinking

In the case of `O=C1c2c(O)cc(O)cc2O[C@H](c2cc(O)c(O)c(O)c2)[C@H]1O` [PDHM, piperidinium 2,3-dihydroxy-5-((2R,3R)-3,5,7-trihydroxy-4-oxochroman-2-yl)phenolate], the Dead number (mice [1]; PDHM 853.27 mg/kg i.p.) is reported as 0, the mortality (mice [1]; PDHM 853.27 mg/kg i.p.) is reported as 0% and the “average dietary of mice” value (mice [1]; PDHM 853.27 mg/kg i.p., D1) is reported as 3.79 g. The “average dietary of mice” value (mice [1]; PDHM 853.27 mg/kg i.p., D2) was 4.58 g, the “average dietary of mice” value (mice [1]; PDHM 853.27 mg/kg i.p., D3) was 3.6 g and the “average dietary of mice” value (mice [1]; PDHM 853.27 mg/kg i.p., D4) was 4.92 g. For the same molecule, the “average dietary of mice” value (mice [1]; PDHM 853.27 mg/kg i.p., D5) was 5.76 g, the “average dietary of mice” value (mice [1]; PDHM 853.27 mg/kg i.p., D6) was 5.31 g and the “average dietary of mice” value (mice [1]; PDHM 853.27 mg/kg i.p., D7) was 5.83 g. For the same molecule, the Dead number (mice [1]; PDHM 874.6 mg/kg i.p.) was 6, the mortality (mice [1]; PDHM 874.6 mg/kg i.p.) was 30% and the “average dietary of mice” value (mice [1]; PDHM 874.6 mg/kg i.p., D1) was 3.91 g. The “average dietary of mice” value (mice [1]; PDHM 874.6 mg/kg i.p., D2) was 4.73 g, the “average dietary of mice” value (mice [1]; PDHM 874.6 mg/kg i.p., D3) was 5.81 g and the “average dietary of mice” value (mice [1]; PDHM 874.6 mg/kg i.p., D4) was 5.43 g. The “average dietary of mice” value (mice [1]; PDHM 874.6 mg/kg i.p., D5) was 4.97 g, the “average dietary of mice” value (mice [1]; PDHM 874.6 mg/kg i.p., D6) was 5.88 g and the “average dietary of mice” value (mice [1]; PDHM 874.6 mg/kg i.p., D7) was 5.72 g. For the same molecule, the Dead number (mice [1]; PDHM 896.47 mg/kg i.p.) was 10, the mortality (mice [1]; PDHM 896.47 mg/kg i.p.) was 50% and the “average dietary of mice” value (mice [1]; PDHM 896.47 mg/kg i.p., D1) was 3.35 g. The “average dietary of mice” value (mice [1]; PDHM 896.47 mg/kg i.p., D2) was 4.92 g, the “average dietary of mice” value (mice [1]; PDHM 896.47 mg/kg i.p., D3) was 5.78 g and the “average dietary of mice” value (mice [1]; PDHM 896.47 mg/kg i.p., D4) was 6.04 g. For the same molecule, the “average dietary of mice” value (mice [1]; PDHM 896.47 mg/kg i.p., D5) was 5.72 g, the “average dietary of mice” value (mice [1]; PDHM 896.47 mg/kg i.p., D6) was 5.34 g and the “average dietary of mice” value (mice [1]; PDHM 896.47 mg/kg i.p., D7) was 5.65 g. The Dead number (mice [1]; PDHM 918.88 mg/kg i.p.) was 12, the mortality (mice [1]; PDHM 918.88 mg/kg i.p.) was 60% and the “average dietary of mice” value (mice [1]; PDHM 918.88 mg/kg i.p., D1) was 4.21 g. The “average dietary of mice” value (mice [1]; PDHM 918.88 mg/kg i.p., D2) was 4.79 g, the “average dietary of mice” value (mice [1]; PDHM 918.88 mg/kg i.p., D3) was 5.21 g and the “average dietary of mice” value (mice [1]; PDHM 918.88 mg/kg i.p., D4) was 6.08 g. The “average dietary of mice” value (mice [1]; PDHM 918.88 mg/kg i.p., D5) was 5.83 g, the “average dietary of mice” value (mice [1]; PDHM 918.88 mg/kg i.p., D6) was 6.24 g and the “average dietary of mice” value (mice [1]; PDHM 918.88 mg/kg i.p., D7) was 5.13 g. The Dead number (mice [1]; PDHM 941.85 mg/kg i.p.) was 18, the mortality (mice [1]; PDHM 941.85 mg/kg i.p.) was 90% and the “average dietary of mice” value (mice [1]; PDHM 941.85 mg/kg i.p., D1) was 4.76 g. The “average dietary of mice” value (mice [1]; PDHM 941.85 mg/kg i.p., D2) was 3.92 g, the “average dietary of mice” value (mice [1]; PDHM 941.85 mg/kg i.p., D3) was 4.66 g and the “average dietary of mice” value (mice [1]; PDHM 941.85 mg/kg i.p., D4) was 5.82 g. The “average dietary of mice” value (mice [1]; PDHM 941.85 mg/kg i.p., D5) was 6.15 g, the “average dietary of mice” value (mice [1]; PDHM 941.85 mg/kg i.p., D6) was 5.79 g and the “average dietary of mice” value (mice [1]; PDHM 941.85 mg/kg i.p., D7) was 5.43 g. For the same molecule, the Dead number (mice [1]; PDHM 965.4 mg/kg i.p.) was 20, the mortality (mice [1]; PDHM 965.4 mg/kg i.p.) was 100% and the “average dietary of mice” value (mice [1]; PDHM 965.4 mg/kg i.p., D1) was 0 g. The “average dietary of mice” value (mice [1]; PDHM 965.4 mg/kg i.p., D2) was 0 g, the “average dietary of mice” value (mice [1]; PDHM 965.4 mg/kg i.p., D3) was 0 g and the “average dietary of mice” value (mice [1]; PDHM 965.4 mg/kg i.p., D4) was 0 g. The “average dietary of mice” value (mice [1]; PDHM 965.4 mg/kg i.p., D5) was 0 g, the “average dietary of mice” value (mice [1]; PDHM 965.4 mg/kg i.p., D6) was 0 g and the “average dietary of mice” value (mice [1]; PDHM 965.4 mg/kg i.p., D7) was 0 g. For the same molecule, the “effect on dietary and body weight” value (mice [1]; mice) was “no significant effect”, the LD50 (mice [1]; mice, i.p., observed 7 days) was 888.79 to 914.58 mg/kg and 748.69 mg/kg and the “blood alcohol concentration vs control group treated with saline” value (Balb/C mice [2]) was “significantly decreased”. The “reduction of blood alcohol concentration compared with DHM” value (Balb/C mice [2]) was “better beneficial effect than DHM”, the “Sleep time M ± SD” value (Balb/C mice [3]; [8]) was 107.71 ± 36.87*^& min and the “Tolerance time M ± SD” value (Balb/C mice [3]; [8]) was 22.14 ± 15 min. For the same molecule, the Dead number (Balb/C mice [3]; [9]) was 2 piece, the Rate of drunk (Balb/C mice [3]; [9]) was 10% and the “sleep time in drunk mice comparing with DHM” value (Balb/C mice [3]; 2 mg/kg gavage 30 min after alcohol) was “remarkably shorten”. For the same molecule, the climbing (Balb/C mice [4]) was 392.25 ± 76.67^#& min, the solubility (physchem) was 5000 µg/mL (≈ 15.6 mM) and the “Sleep time M ± SD” value (Balb/C mice [5]; [10]) was 125.33 ± 33.75 min. For the same molecule, the “Tolerance time M ± SD” value (Balb/C mice [5]; [10]) was 25.43 ± 10.80 min, the Dead number (Balb/C mice [5]; 2 mg/kg gavage 30 min before 30% ethanol, 20 mice) was 2 piece and the “holding time comparing with DHM” value (Balb/C mice [5]; [11]) was “shorten”. The “tolerance time of righting reflex disappearing comparing with DHM” value (Balb/C mice [5]; [11]) was “obviously prolonged”, the MTD at 7 days [6] was 3750 mg/kg and the “average body weight of mice” value (mice [7]; D1) was 1.97 g. For the same molecule, the “dietary change-by-day of mice” value (mice [7]; D1) was 5.98 g, the “average body weight of mice” value (mice [7]; D2) was 3.47 g and the “dietary change-by-day of mice” value (mice [7]; D2) was 6.1 g. The “average body weight of mice” value (mice [7]; D3) was 4.77 g, the “dietary change-by-day of mice” value (mice [7]; D3) was 6.03 g and the “average body weight of mice” value (mice [7]; D4) was 6.37 g. The “dietary change-by-day of mice” value (mice [7]; D4) was 6.14 g, the “average body weight of mice” value (mice [7]; D5) was 7.38 g and the “dietary change-by-day of mice” value (mice [7]; D5) was 6.48 g. For the same molecule, the “average body weight of mice” value (mice [7]; D6) was 8.41 g, the “dietary change-by-day of mice” value (mice [7]; D6) was 6.32 g and the “average body weight of mice” value (mice [7]; D7) was 9.67 g. The “dietary change-by-day of mice” value (mice [7]; D7) was 6.57 g, the “pathological examination of stomach, liver, kidney” value (mice [7]; mice at MTD, end of 7-day observation) was “no obvious degeneration, necrosis and other changes” and the “pathology changes in livers, kidneys, hearts and lungs” value (mice [7]; mice of the toxicity experiments) was “No degeneration and necrosis pathology changes”. The “deaths in preliminary experiments” value (mice [7]; mice, different doses, gavage once, observed 7 days) was “no deaths occurred” and the “deaths during the observation period at MTD” value (mice [7]; mice, gavage three times a day, 7 days) was “No deaths”.
